Tested on: 454973-116-R2-J3-PDC complex spheroid viability
Assay: Anticancer human tumor 454973-116-R2-J3-PDC patient-derived pancreatic carcinoma cell line growth inhibition [POLQ]
Settings: for IC50: curve of first compound; for viability, T/C: stronger effect = lower value
Outline: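 Three-cell-type spheroids modelling solid tumor plus stroma served as the readout system; POL inhibitors were tested individually and in combination, concentration ranges set by clinical Cmax where known.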

[1] = second compound 0.0316 µM, first compound 0.0316 µM
[2] = second compound 0.0316 µM, first compound 0.1 µM
[3] = second compound 0.1 µM, first compound 0.0316 µM
[4] = second compound 0.1 µM, first compound 0.1 µM
[5] = second compound 0.316 µM, first compound 0.0316 µM
[6] = second compound 0.316 µM, first compound 0.1 µM
[7] = second compound 1 µM, first compound 0.0316 µM
[8] = second compound 1 µM, first compound 0.1 µM
[9] = second compound 3.16 µM, first compound 0.0316 µM
[10] = second compound 3.16 µM, first compound 0.1 µM
[11] = second compound 10 µM, first compound 0.0316 µM
[12] = second compound 10 µM, first compound 0.1 µM
[13] = second compound 0.0316 µM, first compound 0.316 µM
[14] = second compound 0.0316 µM, first compound 1 µM
[15] = second compound 0.0316 µM, first compound 3.16 µM
[16] = second compound 0.0316 µM, first compound 10 µM
[17] = second compound 0.1 µM, first compound 0.316 µM
[18] = second compound 0.1 µM, first compound 1 µM
[19] = second compound 0.1 µM, first compound 3.16 µM
[20] = second compound 0.1 µM, first compound 10 µM
[21] = second compound 0.316 µM, first compound 0.316 µM
[22] = second compound 0.316 µM, first compound 1 µM
[23] = second compound 0.316 µM, first compound 3.16 µM
[24] = second compound 0.316 µM, first compound 10 µM
[25] = second compound 1 µM, first compound 0.316 µM
[26] = second compound 1 µM, first compound 1 µM
[27] = second compound 1 µM, first compound 3.16 µM
[28] = second compound 1 µM, first compound 10 µM
[29] = second compound 3.16 µM, first compound 0.316 µM
[30] = second compound 3.16 µM, first compound 1 µM
[31] = second compound 3.16 µM, first compound 3.16 µM
[32] = second compound 3.16 µM, first compound 10 µM
[33] = second compound 10 µM, first compound 0.316 µM
[34] = second compound 10 µM, first compound 1 µM
[35] = second compound 10 µM, first compound 3.16 µM
[36] = second compound 10 µM, first compound 10 µM
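Also: spheroids exposed to drugs for seven days before measurement.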
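For viability, T/C in this document: percent viability relative to DMSO vehicle control wells taken as 100%.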

What does the source list for `Cn1ncnc1[C@H]1c2n[nH]c(=O)c3cc(F)cc(c23)N[C@@H]1c1ccc(F)cc1` + COC1C(OC(N)=O)C(O)C(Oc2ccc3c(O)c(NC(=O)c4ccc(O)c(CC=C(C)C)c4)c(=O)oc3c2C)OC1(C)C?
IC50 (second compound 0.0316 µM): > 100 nM; IC50 (second compound 0.1 µM): > 100 nM; IC50 (second compound 0.316 µM): > 100 nM; IC50 (second compound 1 µM): > 100 nM; IC50 (second compound 3.16 µM): > 100 nM; IC50 (second compound 10 µM): > 100 nM; viability, T/C (second compound 0.0316 µM, first compound 0.000316 µM): 100%; viability, T/C (second compound 0.0316 µM, first compound 0.001 µM): 111%; viability, T/C (second compound 0.0316 µM, first compound 0.00316 µM): 102%; viability, T/C (second compound 0.0316 µM, first compound 0.01 µM): 109%; viability, T/C [1]: 95.1%; viability, T/C [2]: 83.4%; viability, T/C (second compound 0.1 µM, first compound 0.000316 µM): 102%; viability, T/C (second compound 0.1 µM, first compound 0.001 µM): 112%; viability, T/C (second compound 0.1 µM, first compound 0.00316 µM): 105%; viability, T/C (second compound 0.1 µM, first compound 0.01 µM): 104%; viability, T/C [3]: 98.5%; viability, T/C [4]: 90.5%; viability, T/C (second compound 0.316 µM, first compound 0.000316 µM): 112%; viability, T/C (second compound 0.316 µM, first compound 0.001 µM): 114%; viability, T/C (second compound 0.316 µM, first compound 0.00316 µM): 105%; viability, T/C (second compound 0.316 µM, first compound 0.01 µM): 100%; viability, T/C [5]: 93.5%; viability, T/C [6]: 83.3%; viability, T/C (second compound 1 µM, first compound 0.000316 µM): 109%; viability, T/C (second compound 1 µM, first compound 0.001 µM): 102%; viability, T/C (second compound 1 µM, first compound 0.00316 µM): 107%; viability, T/C (second compound 1 µM, first compound 0.01 µM): 102%; viability, T/C [7]: 93.1%; viability, T/C [8]: 82.5%; viability, T/C (second compound 3.16 µM, first compound 0.000316 µM): 107%; viability, T/C (second compound 3.16 µM, first compound 0.001 µM): 111%; viability, T/C (second compound 3.16 µM, first compound 0.00316 µM): 104%; viability, T/C (second compound 3.16 µM, first compound 0.01 µM): 100%; viability, T/C [9]: 104%; viability, T/C [10]: 88.9%; viability, T/C (second compound 10 µM, first compound 0.000316 µM): 101%; viability, T/C (second compound 10 µM, first compound 0.001 µM): 96%; viability, T/C (second compound 10 µM, first compound 0.00316 µM): 98.3%; viability, T/C (second compound 10 µM, first compound 0.01 µM): 103%; viability, T/C [11]: 87.2%; viability, T/C [12]: 78.1%

Which results are given for `CNCc1ccc(-c2[nH]c3cc(F)cc4c3c2CCNC4=O)cc1` + Nc1ccc(C#CCN(C(=O)Cc2ncc(C(F)(F)F)cc2C(F)(F)F)c2ccc(F)cc2)nn1?
IC50 (second compound 0.0316 µM): > 10000 nM; IC50 (second compound 0.1 µM): > 10000 nM; IC50 (second compound 0.316 µM): > 10000 nM; IC50 (second compound 1 µM): > 10000 nM; IC50 (second compound 3.16 µM): > 10000 nM; IC50 (second compound 10 µM): > 10000 nM; viability, T/C [1]: 114%; viability, T/C [2]: 101%; viability, T/C [13]: 109%; viability, T/C [14]: 94.5%; viability, T/C [15]: 104%; viability, T/C [16]: 91.9%; viability, T/C [3]: 103%; viability, T/C [4]: 96.2%; viability, T/C [17]: 95.8%; viability, T/C [18]: 90.3%; viability, T/C [19]: 98.2%; viability, T/C [20]: 95.4%; viability, T/C [5]: 105%; viability, T/C [6]: 100%; viability, T/C [21]: 105%; viability, T/C [22]: 95.6%; viability, T/C [23]: 101%; viability, T/C [24]: 95.9%; viability, T/C [7]: 110%; viability, T/C [8]: 106%; viability, T/C [25]: 106%; viability, T/C [26]: 108%; viability, T/C [27]: 110%; viability, T/C [28]: 91%; viability, T/C [9]: 113%; viability, T/C [10]: 115%; viability, T/C [29]: 108%; viability, T/C [30]: 98.7%; viability, T/C [31]: 121%; viability, T/C [32]: 90.6%; viability, T/C [11]: 116%; viability, T/C [12]: 102%; viability, T/C [33]: 112%; viability, T/C [34]: 117%; viability, T/C [35]: 119%; viability, T/C [36]: 85%

Which IC50 (second compound 0.0316 µM) does the source give for `C#Cc1c(F)ccc2cc(O)cc(-c3ncc4c(N5CC6CCC(C5)N6)nc(OCC56CCCN5CC(F)C6)nc4c3F)c12` (stereo unspecified) + Nc1ccc(C#CCN(C(=O)Cc2ncc(C(F)(F)F)cc2C(F)(F)F)c2ccc(F)cc2)nn1 here?
Its IC50 is < 31.6 nM.

What about the IC50 (second compound 0.1 µM) of the same molecule?
The IC50 was < 31.6 nM.

What about the IC50 (second compound 0.316 µM) of the same molecule?
Its IC50 is < 31.6 nM.

And the IC50 (second compound 1 µM)?
The IC50 was < 31.6 nM.

And the IC50 (second compound 3.16 µM)?
The IC50 was < 31.6 nM.

And the IC50 (second compound 10 µM)?
The IC50 was < 31.6 nM.

And the viability, T/C [1]?
The viability, T/C was 47.5%.

And the viability, T/C [2]?
Its viability, T/C is 36.1%.

What about the viability, T/C [13] of the same molecule?
The viability, T/C was 28.4%.

What about the viability, T/C [14] of the same molecule?
The viability, T/C was 24.1%.

What about the viability, T/C [15] of the same molecule?
Its viability, T/C is 19%.

And the viability, T/C [16]?
The viability, T/C was 18.1%.

And the viability, T/C [3]?
Its viability, T/C is 46.1%.

What about the viability, T/C [4] of the same molecule?
Its viability, T/C is 36%.

What about the viability, T/C [17] of the same molecule?
Its viability, T/C is 26%.

And the viability, T/C [18]?
The viability, T/C was 24%.

What about the viability, T/C [19] of the same molecule?
The viability, T/C was 22.2%.

And the viability, T/C [20]?
The viability, T/C was 18%.

What about the viability, T/C [5] of the same molecule?
Its viability, T/C is 49.8%.

What about the viability, T/C [6] of the same molecule?
Its viability, T/C is 35.8%.

What about the viability, T/C [21] of the same molecule?
The viability, T/C was 28.9%.

What about the viability, T/C [22] of the same molecule?
The viability, T/C was 25.5%.

What about the viability, T/C [23] of the same molecule?
The viability, T/C was 22.1%.

And the viability, T/C [24]?
Its viability, T/C is 19.6%.

What about the viability, T/C [7] of the same molecule?
Its viability, T/C is 46.2%.

And the viability, T/C [8]?
The viability, T/C was 35.1%.

And the viability, T/C [25]?
The viability, T/C was 29.3%.

And the viability, T/C [26]?
The viability, T/C was 25.4%.

And the viability, T/C [27]?
The viability, T/C was 22.7%.

And the viability, T/C [28]?
The viability, T/C was 18.8%.

What about the viability, T/C [9] of the same molecule?
Its viability, T/C is 43.8%.

And the viability, T/C [10]?
The viability, T/C was 35.4%.

And the viability, T/C [29]?
Its viability, T/C is 25.6%.

What about the viability, T/C [30] of the same molecule?
Its viability, T/C is 25.2%.

And the viability, T/C [31]?
The viability, T/C was 21.9%.

What about the viability, T/C [32] of the same molecule?
The viability, T/C was 18.5%.

What about the viability, T/C [11] of the same molecule?
Its viability, T/C is 44.6%.

And the viability, T/C [12]?
The viability, T/C was 39.3%.

And the viability, T/C [33]?
The viability, T/C was 32.8%.

What about the viability, T/C [34] of the same molecule?
The viability, T/C was 28%.

And the viability, T/C [35]?
The viability, T/C was 23.4%.

What about the viability, T/C [36] of the same molecule?
The viability, T/C was 23.5%.

From PubChem BioAssay AID1963846 (Molecular Pharmacology Branch, DTP, NCI, 2024)
